Test results published in patent US8618303B2, “Pyrrolidine derivatives” (Hoffmann-La Roche Inc., priority 2011, dated 2013).

System: not given
Experiment: not given
Conditions: phase II trial; cited from earlier work

Structure (SMILES) | activity on negative symptoms of schizophrenia | activity on positive symptoms of schizophrenia
CC(=O)N(C)C1(c2ccccc2)CCN(CCC[C@]2(c3ccc(Cl)c(Cl)c3)CCCN(C(=O)c3ccccc3)C2)CC1 [SR 142,801, Osanetant] | inactive in the treatment of negative symptoms | active on positive symptoms of schizophrenia

Target: human NK3 receptor (Homo sapiens (Human), UniProt P29371)
Sequence (P29371 whole entry): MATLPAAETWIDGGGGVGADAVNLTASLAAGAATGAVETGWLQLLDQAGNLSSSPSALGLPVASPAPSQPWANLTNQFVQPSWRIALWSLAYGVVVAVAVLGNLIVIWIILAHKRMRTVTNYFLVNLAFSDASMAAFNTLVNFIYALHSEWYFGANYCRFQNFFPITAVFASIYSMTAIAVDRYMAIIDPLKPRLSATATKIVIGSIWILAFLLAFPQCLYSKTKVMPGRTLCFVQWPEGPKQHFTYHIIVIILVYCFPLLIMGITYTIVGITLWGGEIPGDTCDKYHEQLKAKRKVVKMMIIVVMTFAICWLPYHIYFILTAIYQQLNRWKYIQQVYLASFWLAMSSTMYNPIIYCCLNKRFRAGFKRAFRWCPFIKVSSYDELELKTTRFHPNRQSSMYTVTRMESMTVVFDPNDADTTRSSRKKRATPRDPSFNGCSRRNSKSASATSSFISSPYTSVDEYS
Experiment: [3H]SR142801 competition binding assay
Conditions: not given
Protocol: hNK3 receptor binding experiment were performed using [^3H]SR142801 (Catalog No. TRK1035, specific activity: 74.0 Ci/mmol, Amersham, GE Healthcare UK limited, Buckinghamshire, UK) and membrane isolated from HEK293 cells transiently expressing recombinant human NK3 receptor. After thawing, the membrane homogenates were centrifuged at 48,000×g for 10 min at 4° C., the pellets were resuspended in the 50 mM Tris-HCl, 4 mM MnCl2, 1 μM phosphoramidon, 0.1% BSA binding buffer at pH 7.4 to a final assay concentration of 5 μg protein/well. […] At the end of the incubation, membranes were filtered onto unitfilter (96-well white microplate with bonded GF/C filter preincubated 1 h in 0.3% PEI+0.3% BSA, Packard BioScience, Meriden, Conn.) with a Filtermate 196 harvester (Packard BioScience) and washed 4 times with ice-cold 50 mM Tris-HCl, pH 7.4 buffer. Nonspecific binding was measured in the presence of 10μM SB222200 for both radioligands. The radioactivity on the filter was counted (5 min) on a Packard Top-count microplate scintillation counter with quenching correction after addition of 45 μl of microscint 40 (Canberra Packard S.A., Ziirich, Switzerland) and shaking for 1 h. Inhibition curves were fitted according to the Hill equation: y=100/(1+(x/IC50), where nH=slope factor using Excel-fit 4 software (Microsoft). IC50 values were derived from the inhibition curve and the affinity constant (Ki) values were calculated using the Cheng-Prussoff equation Ki =IC50/(1+[L]/KD) where [L] is the concentration of radioligand and KD is its dissociation constant at the receptor, derived from the saturation isotherm. All experiments were performed in duplicate and the mean±standard error (SEM) of the individual Ki values was calculated.

Structure (SMILES) | Ki
CN(C(=O)Oc1ccc(F)cc1)[C@@H]1CN(C(=O)C2CCN(c3ccc(F)cn3)CC2)C[C@@]1(C)c1ccc(Cl)cc1 (racemic) [Example 23, rac-[(3S,4R)-4-(4-Chloro-phenyl)-1-(5′-fluoro-3,4,5,6-tetrahydro-2H-[1,2′]bipyridinyl-4-carbonyl)-4-methyl-pyrrolidin-3-yl]-methyl-carbamic acid 4-fluoro-phenyl ester] | 0.0435 µM
CC(=O)c1ccc(N2CCC(C(=O)N3C[C@@H](N(C)C(=O)Oc4ccc(F)cc4)[C@](C)(c4ccc(Cl)cc4)C3)CC2)nc1 (racemic) [Example 31, rac-[(3S,4R)-1-(5′-Acetyl-3,4,5,6-tetrahydro-2H-[1,2′]bipyridinyl-4-carbonyl)-4-(4-chloro-phenyl)-4-methyl-pyrrolidin-3-yl]-methyl-carbamic acid 4-fluoro-phenyl ester] | 0.0081 µM
COc1ccc(N2CCC(C(=O)N3C[C@@H](N(C)C(=O)Oc4ccc(F)cc4)[C@](C)(c4ccc(Cl)cc4)C3)CC2)nn1 (racemic) [Example 35, rac-{(3S,4R)-4-(4-Chloro-phenyl)-1-[1-(6-methoxy-pyridazin-3-yl)-piperidine-4-carbonyl]-4-methyl-pyrrolidin-3-yl}-methyl-carbamic acid 4-fluoro-phenyl ester] | 0.0213 µM
CN(C(=O)Oc1ccc(F)cc1)[C@@H]1CN(C(=O)C2CCN(C3CCCCC3)CC2)C[C@@]1(C)c1ccc(Cl)cc1 [Example 25, [(3S,4R)-4-(4-Chloro-phenyl)-1-(1-cyclohexyl-piperidine-4-carbonyl)-4-methyl-pyrrolidin-3-yl]-methyl-carbamic acid 4-fluoro-phenyl ester] | 0.0915 µM

Same assay, conditions: membranes from HEK293 cells transiently expressing recombinant human NK3 receptor; [3H]SR142801; Ki from IC50 by Cheng-Prussoff; read-out: Ki (uM) hNK3

Structure (SMILES) | Ki
CC(C)C(=O)N1CCC(C(=O)N2C[C@@H](N(C)C(=O)Oc3ccc(F)cc3)[C@](C)(c3ccc(Cl)cc3)C2)CC1 (racemic) [Example 24, rac-[(3S,4R)-4-(4-Chloro-phenyl)-1-(1-isobutyryl-piperidine-4-carbonyl)-4-methyl-pyrrolidin-3-yl]-methyl-carbamic acid 4-fluoro-phenyl ester] | 0.0392 µM
CN(C(=O)Oc1ccc(F)cc1)[C@@H]1CN(C(=O)c2ccc(C#N)cc2)C[C@@]1(C)c1ccc(Cl)cc1 (racemic) [Example 26, rac-[(3S,4R)-4-(4-Chloro-phenyl)-1-(4-cyano-benzoyl)-4-methyl-pyrrolidin-3-yl]-methyl-carbamic acid 4-fluoro-phenyl ester] | 0.629 µM
CC(=O)N1CCC(C(=O)N2C[C@@H](N(C)C(=O)Oc3ccc(F)cc3)[C@](C)(c3ccc(Cl)cc3)C2)CC1 (racemic) [Example 27, rac-[(3S,4R)-1-(1-Acetyl-piperidine-4-carbonyl)-4-(4-chloro-phenyl)-4-methyl-pyrrolidin-3-yl]-methyl-carbamic acid 4-fluoro-phenyl ester] | 0.051 µM
CN(C(=O)Oc1ccc(F)cc1)[C@@H]1CN(C(=O)C2CCOCC2)C[C@@]1(C)c1ccc(Cl)cc1 (racemic) [Example 28, rac-[(3S,4R)-4-(4-Chloro-phenyl)-4-methyl-1-(tetrahydro-pyran-4-carbonyl)-pyrrolidin-3-yl]-methyl-carbamic acid 4-fluoro-phenyl ester] | 0.348 µM
Cc1ccc(N2CCC(C(=O)N3C[C@@H](N(C)C(=O)Oc4ccc(F)cc4)[C@](C)(c4ccc(Cl)cc4)C3)CC2)nc1 (racemic) [Example 29, rac-[(3S,4R)-4-(4-Chloro-phenyl)-4-methyl-1-(5′-methyl-3,4,5,6-tetrahydro-2H-[1,2′]bipyridinyl-4-carbonyl)-pyrrolidin-3-yl]-methyl-carbamic acid 4-fluoro-phenyl ester] | 0.0245 µM
CN(C(=O)Oc1ccc(F)cc1)[C@@H]1CN(C(=O)C2CCN(c3ccc(C#N)cn3)CC2)C[C@@]1(C)c1ccc(Cl)cc1 (racemic) [Example 30, rac-[(3S,4R)-4-(4-Chloro-phenyl)-1-(5′-cyano-3,4,5,6-tetrahydro-2H-[1,2′]bipyridinyl-4-carbonyl)-4-methyl-pyrrolidin-3-yl]-methyl-carbamic acid 4-fluoro-phenyl ester] | 0.0053 µM
CN(C(=O)Oc1ccc(F)cc1)[C@@H]1CN(C(=O)C2CCN(c3ccc(Cl)cn3)CC2)C[C@@]1(C)c1ccc(Cl)cc1 (racemic) [Example 32, rac-[(3S,4R)-4-(4-Chloro-phenyl)-1-(5′-chloro-3,4,5,6-tetrahydro-2H-[1,2′]bipyridinyl-4-carbonyl)-4-methyl-pyrrolidin-3-yl]-methyl-carbamic acid 4-fluoro-phenyl ester] | 0.0099 µM
CN(C(=O)Oc1ccc(F)cc1)[C@@H]1CN(C(=O)C2CCN(c3ccc(C(F)(F)F)cn3)CC2)C[C@@]1(C)c1ccc(Cl)cc1 (racemic) [Example 33, rac-[(3S,4R)-4-(4-Chloro-phenyl)-4-methyl-1-(5′-trifluoromethyl-3,4,5,6-tetrahydro-2H-[1,2′]bipyridinyl-4-carbonyl)-pyrrolidin-3-yl]-methyl-carbamic acid 4-fluoro-phenyl ester] | 0.02 µM
CN(C(=O)Oc1ccc(F)cc1)[C@@H]1CN(C(=O)c2ccc(N3CCCCC3=O)cc2)C[C@@]1(C)c1ccc(Cl)cc1 (racemic) [Example 36, rac-{(3S,4R)-4-(4-Chloro-phenyl)-4-methyl-1-[4-(2-oxo-piperidin-1-yl)-benzoyl]-pyrrolidin-3-yl}-methyl-carbamic acid 4-fluoro-phenyl ester] | 0.997 µM
